For this test, the target named is cGMP-dependent 3',5'-cyclic phosphodiesterase (Homo sapiens, UniProt O00408). The experiment in a line: Inhibition Assay: The activity of the test substances on human full-length PDE2A3 enzyme was determined using the [3H]-cGMP scintillation proximity assay (SPA) modified from the Amersham TRKQ7100 instructions (GE Healthcare, USA). (In general: Scintillation proximity formats need no separation of bound from free tracer.)
Sequence of cGMP-dependent 3',5'-cyclic phosphodiesterase (O00408 whole entry): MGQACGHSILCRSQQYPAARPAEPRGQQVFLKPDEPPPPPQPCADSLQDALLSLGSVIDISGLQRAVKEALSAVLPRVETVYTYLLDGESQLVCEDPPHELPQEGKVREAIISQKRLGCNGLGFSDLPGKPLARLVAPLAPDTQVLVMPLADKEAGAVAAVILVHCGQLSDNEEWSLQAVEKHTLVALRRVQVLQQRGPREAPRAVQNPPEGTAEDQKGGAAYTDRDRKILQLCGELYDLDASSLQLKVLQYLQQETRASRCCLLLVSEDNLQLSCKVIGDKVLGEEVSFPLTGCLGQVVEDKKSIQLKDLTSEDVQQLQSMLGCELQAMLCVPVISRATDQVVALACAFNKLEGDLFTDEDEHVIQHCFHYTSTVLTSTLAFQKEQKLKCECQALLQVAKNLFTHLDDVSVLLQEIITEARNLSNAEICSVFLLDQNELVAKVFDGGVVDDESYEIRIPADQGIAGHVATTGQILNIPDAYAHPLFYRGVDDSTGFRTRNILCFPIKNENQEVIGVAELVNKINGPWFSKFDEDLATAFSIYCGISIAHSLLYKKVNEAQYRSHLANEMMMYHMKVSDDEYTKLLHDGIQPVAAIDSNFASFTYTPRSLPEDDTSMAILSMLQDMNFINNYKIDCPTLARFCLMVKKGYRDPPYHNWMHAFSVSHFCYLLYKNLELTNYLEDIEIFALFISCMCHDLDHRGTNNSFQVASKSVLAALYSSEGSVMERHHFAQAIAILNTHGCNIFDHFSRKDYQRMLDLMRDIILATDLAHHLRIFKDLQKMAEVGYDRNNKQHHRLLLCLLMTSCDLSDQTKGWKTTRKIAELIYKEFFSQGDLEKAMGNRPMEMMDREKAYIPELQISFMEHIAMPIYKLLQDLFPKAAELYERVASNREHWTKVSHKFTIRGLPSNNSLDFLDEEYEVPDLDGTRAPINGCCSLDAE

One may read the IC50 as the point on the concentration scale where inhibition reaches its midpoint. A high value points to weaker potency. For `Cc1nc(-c2cnn(C)c2-c2ccc(C(F)(F)F)cc2)c2c(N3CC(F)C3)ncnn12`, it took 633 pM to reach half-maximal inhibition (IC50).
